pIC50: −log10 of the molar value. Where two headings read alike, the source gives them in different places.

The target in series [1] is PARP1 (Homo sapiens, UniProt P09874). Kind of series: PARP enzyme assay (PARP1, chemiluminescent histone ribosylation). Particulars: for % inhibition 10 nM / % inhibition 100 nM: PARP enzyme assay; for % inhibition 10 nM: 10 nM compound, 0.01 µM; for % inhibition 100 nM: 100 nM compound, 0.1 µM.
Protocol: 1) Coat 25 µL of histone solution onto a 384-well plate as described below: • Dilute 5x histone mixture 1:5 with PBS. • Add 25 µL of diluted histone solution to each well and incubate at 4° C. overnight. • Wash the plate three times using 100 µL PBST buffer (1x PBS containing 0.05% Tween20) per well. • Tap plate onto clean paper towel to remove liquid. • Block the wells by adding 100 µL of Blocking buffer 3 to every well. Incubate at room temperature for 1 h 15 minutes. • Wash plate three times with 100 µL PBST buffer as described above. • Tap plate onto clean paper towel to remove liquid.
1) Preparation of 1X PARP Buffer: • Prepare 1x PARP buffer by adding 1 part of 10x PARP buffer to 9 parts distilled water (v/v). To prepare 500 µL of 1X PARP buffer, add 50 µL 10X PARP Assay buffer to 450 µL of H2O and mix well.
2) Preparation of the Ribosylation master mixture: • N wells x (1.25 µL 10x PARP buffer + 1.25 µL 10X PARP Assay mixture + 2.5 µL Activated DNA + 7.5 µL distilled water). Add 12.5 µL to every well.
3) Preparation of the inhibitor solution: • 10 mM stock solution of the inhibitor was prepared in DMSO. From 10 mM stock solution, 250X concentrations of the inhibitor were made in DMSO. • 250X DMSO concentrations of the inhibitor were further diluted to 10X concentrations in 1X kinase buffer. • 2.5 µL (10X concentrations) of kinase buffer containing inhibitor was added to each well. • For the “Positive Control” and “Blank”, add 2.5 µL of kinase buffer containing DMSO (4%) was added. • The final DMSO concentration in the well was 0.4 %.
4) Preparation of the enzyme solution: • Thaw PARP1 enzyme on ice. Upon first thaw, briefly spin tube containing enzyme to recover full content of the tube. Calculate the amount of PARP1 required for the assay and dilute enzyme to 2.0 ng/µL with 1x PARP buffer. • Initiate reaction by adding 10 µL of diluted PARP1 enzyme to the wells designated “Positive Control” and “Test Inhibitor”. • To the wells designated as “Blank”, add 10 µL of 1X PARP buffer. • Centrifuge the plate at 1000 rpm for 30 seconds and incubate at room temperature for 60 min. • Discard the reaction mixture after 1 hour, and wash plate three times with 100 µL PBST buffer and tap plate onto clean paper towel as described above.
1) Preparation of Streptavidin-HRP: • Dilute Streptavidin-HRP 1:50 in Blocking buffer. • Add 25 µL of diluted Streptavidin-HRP to each well. Incubate for 30 min. at room temperature. • Wash three times with 100 µL PBST buffer and tap plate onto clean paper towel as above as described above.
2) Preparation of ECL substrate: • Just before use, mix on ice equal amounts of ELISA ECL Substrate A and ELISA ECL Substrate B and add 50 µL per well. • Immediately read the plate in microtiter-plate in Chemiluminescence setting. The “Blank” value is subtracted from all other values.
For series [2], the target named is PARP2 (Homo sapiens, UniProt Q9UGN5). Put plainly: PARP enzyme assay (PARP2). Format: biochemical. The source says:
Step 2: Ribosylation Reaction

PARP2, sequence (Q9UGN5 whole entry, species assumed): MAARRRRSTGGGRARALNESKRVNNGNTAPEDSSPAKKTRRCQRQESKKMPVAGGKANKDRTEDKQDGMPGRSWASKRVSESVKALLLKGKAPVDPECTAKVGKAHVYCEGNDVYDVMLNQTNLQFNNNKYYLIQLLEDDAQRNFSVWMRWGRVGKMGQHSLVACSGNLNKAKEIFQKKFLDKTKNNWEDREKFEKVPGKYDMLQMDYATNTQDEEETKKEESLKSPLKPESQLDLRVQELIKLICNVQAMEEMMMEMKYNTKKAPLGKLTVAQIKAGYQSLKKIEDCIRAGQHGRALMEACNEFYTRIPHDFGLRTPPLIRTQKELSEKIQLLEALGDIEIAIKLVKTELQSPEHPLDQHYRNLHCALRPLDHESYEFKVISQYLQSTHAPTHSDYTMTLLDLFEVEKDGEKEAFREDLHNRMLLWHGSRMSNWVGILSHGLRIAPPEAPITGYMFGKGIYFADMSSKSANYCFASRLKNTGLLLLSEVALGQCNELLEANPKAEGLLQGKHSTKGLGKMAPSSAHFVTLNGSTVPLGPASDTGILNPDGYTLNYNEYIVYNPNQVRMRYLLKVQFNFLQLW
PARP1, sequence (P09874 whole entry, species assumed): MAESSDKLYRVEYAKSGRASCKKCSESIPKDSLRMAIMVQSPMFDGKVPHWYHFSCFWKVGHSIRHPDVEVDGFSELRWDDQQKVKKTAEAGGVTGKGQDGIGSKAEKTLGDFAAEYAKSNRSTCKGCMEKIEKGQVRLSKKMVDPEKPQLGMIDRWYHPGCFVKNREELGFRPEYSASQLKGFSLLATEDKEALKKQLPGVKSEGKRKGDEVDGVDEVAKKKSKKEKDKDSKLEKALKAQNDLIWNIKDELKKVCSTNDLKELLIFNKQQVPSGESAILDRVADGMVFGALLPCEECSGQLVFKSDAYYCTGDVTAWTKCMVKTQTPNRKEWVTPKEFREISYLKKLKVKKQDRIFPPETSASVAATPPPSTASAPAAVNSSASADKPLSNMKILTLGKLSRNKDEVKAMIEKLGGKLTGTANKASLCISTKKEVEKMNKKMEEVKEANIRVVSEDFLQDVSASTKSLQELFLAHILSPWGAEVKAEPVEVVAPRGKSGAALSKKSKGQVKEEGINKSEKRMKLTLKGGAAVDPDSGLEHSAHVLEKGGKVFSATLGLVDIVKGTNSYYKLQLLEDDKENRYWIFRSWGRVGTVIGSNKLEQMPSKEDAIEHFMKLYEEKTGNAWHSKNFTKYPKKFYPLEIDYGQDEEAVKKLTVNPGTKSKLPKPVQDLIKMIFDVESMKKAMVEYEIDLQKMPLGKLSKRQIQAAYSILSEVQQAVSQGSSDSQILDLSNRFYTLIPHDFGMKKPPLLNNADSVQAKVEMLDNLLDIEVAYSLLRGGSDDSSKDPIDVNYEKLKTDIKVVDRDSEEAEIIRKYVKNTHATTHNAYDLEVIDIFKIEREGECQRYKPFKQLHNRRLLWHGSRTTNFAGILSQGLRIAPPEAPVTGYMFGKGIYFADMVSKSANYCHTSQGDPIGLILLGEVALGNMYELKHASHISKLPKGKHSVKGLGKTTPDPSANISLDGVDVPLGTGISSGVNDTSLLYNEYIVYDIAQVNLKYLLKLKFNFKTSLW

The term melting point denotes the temperature of the solid-liquid transition. `O=C1N(c2cncc(Cc3n[nH]c(=O)c4ccccc34)c2)c2ccccc2C1(O)C(F)(F)F` (single isomer, unassigned; (+)) [Example 26, (+)-4-((5-(3-Hydroxy-2-oxo-3-(trifluoromethyl)indolin-1-yl)pyridin-3-yl)methyl)phthalazin-1(2H)-one] had a melting point of 170 to 174 °C. In addition, in series [1], the “% inhibition 10 nM” value is “A (A represents >75% to 100%)” and the “% inhibition 100 nM” value is recorded as “A (A represents >75% to 100%)”.
One may read the IC50 as the concentration that gives 50% inhibition. A higher IC50 goes with a need for much substance. One may read the pIC50 as the negative decadic logarithm of the IC50, by convention in mol/L. Lower therefore signals a high IC50. Usually inhibition stands for how much of the control response was suppressed. `CC1(O)C(=O)N(c2cc(Cc3n[nH]c(=O)c4ccccc34)ccn2)c2ccccc21` (single isomer, unassigned; (-)) [Example 19, (-)-4-((2-(3-Hydroxy-3-methyl-2-oxoindolin-1-yl)pyridin-4-yl)methyl)phthalazin-1(2H)-one] gave a melting point of 207 to 210 °C. The IC50 in series [2] was < 10 nM. Moreover, the pIC50 in series [1] was > 8.00. Besides, in series [1] (read-out: % inhibition 10 nM, PARP enzyme assay, 10 nM compound), the inhibition at 0.01 µM was in the range of 75 to 100%. Further, the inhibition at 0.1 µM in series [1] (read-out: % inhibition 100 nM, PARP enzyme assay, 100 nM compound) lay within 75 to 100%.
As for `O=C1N(c2cncc(Cc3n[nH]c(=O)c4ccccc34)c2)c2ccccc2C1(O)C(F)(F)F` (single isomer, unassigned; (-)) [Example 27, (-)-4-((5-(3-Hydroxy-2-oxo-3-(trifluoromethyl)indolin-1-yl)pyridin-3-yl)methyl)phthalazin-1(2H)-one], the melting point was 210 to 214 °C. Besides, in series [1], the “% inhibition 10 nM” value is reported as “C (C represents >25% to ≤50%)” and the “% inhibition 100 nM” value is recorded as “C (C represents >25% to ≤50%)”.
Molecule `CC1(O)C(=O)N(c2cc(Cc3n[nH]c(=O)c4ccccc34)ccc2F)c2ccccc21` (stereo not drawn) [Example 4, 4-(4-Fluoro-3-(3-hydroxy-3-methyl-2-oxoindolin-1-yl)benzyl)phthalazin-1(2H)-one] showed a melting point of 131 to 134 °C. The inhibition at 0.01 µM in series [1] (read-out: % inhibition 10 nM) was in the range of 75 to 100%. Moreover, in series [1] (read-out: % inhibition 100 nM), the inhibition at 0.1 µM lay within 75 to 100%.
As to `CCC1(O)C(=O)N(c2cncc(Cc3n[nH]c(=O)c4ccccc34)c2)c2ccccc21` (stereo not drawn) [Example 5, 4-((5-(3-Ethyl-3-hydroxy-2-oxoindolin-1-yl)pyridin-3-yl)methyl)phthalazin-1(2H)-one], the melting point was in the range of 117 to 120 °C. Further, the inhibition at 0.01 µM in series [1] (read-out: % inhibition 10 nM) lay in the range of 75 to 100%. Besides, the inhibition at 0.1 µM in series [1] (read-out: % inhibition 100 nM) was 75 to 100%.
In the case of `CC1(O)C(=O)N(c2cncc(Cc3n[nH]c(=O)c4cc(F)ccc34)c2)c2ccccc21` (stereo not drawn) [Example 6, 7-Fluoro-4-((5-(3-hydroxy-3-methyl-2-oxoindolin-1-yl)pyridin-3-yl)methyl)phthalazin-1(2H)-one], the melting point is 133 to 136 °C. Moreover, the IC50 in series [2] is < 10 nM.
Take `CC1(O)C(=O)N(c2cncc(Cc3n[nH]c(=O)c4ccc(F)cc34)c2)c2ccccc21` (stereo not drawn) [Example 9, 6-Fluoro-4-((5-(3-hydroxy-3-methyl-2-oxoindolin-1-yl)pyridin-3-yl)methyl)phthalazin-1(2H)-one]: the melting point is 132 to 135 °C. The inhibition at 0.01 µM in series [1] (read-out: % inhibition 10 nM) was in the range of 75 to 100%. For the same molecule, the inhibition at 0.1 µM in series [1] (read-out: % inhibition 100 nM) was in the range of 75 to 100%.
Regarding `CC1(O)C(=O)N(c2cncc(Cc3n[nH]c(=O)c4cc(F)ccc34)c2)c2ccc(F)cc21` (stereo not drawn) [Example 10, 7-Fluoro-4-((5-(5-fluoro-3-hydroxy-3-methyl-2-oxoindolin-1-yl)pyridin-3-yl)methyl)phthalazin-1(2H)-one], the melting point was 157 to 160 °C. The pIC50 in series [1] is > 8.00. In addition, in series [1] (read-out: % inhibition 10 nM), the inhibition at 0.01 µM fell in the range of 75 to 100%. Further, the inhibition at 0.1 µM in series [1] (read-out: % inhibition 100 nM) lay within 75 to 100%.
Turning to `CC1(O)C(=O)N(c2cncc(Cc3n[nH]c(=O)c4ccccc34)c2)c2ccc(F)cc21` (stereo not drawn) [Example 13, 4-((5-(5-Fluoro-3-hydroxy-3-methyl-2-oxoindolin-1-yl)pyridin-3-yl)methyl)phthalazin-1(2H)-one], the melting point lay in the range of 116 to 120 °C. In series [2], the IC50 was < 10 nM. Besides, in series [1], the pIC50 was > 8.00. Moreover, in series [1] (read-out: % inhibition 10 nM), the inhibition at 0.01 µM lay within 75 to 100%. Besides, the inhibition at 0.1 µM in series [1] (read-out: % inhibition 100 nM) is 75 to 100%.
`CC1(O)C(=O)N(c2cncc(Cc3n[nH]c(=O)c4ccccc34)c2)c2cc(F)ccc21` (stereo not drawn) [Example 16] displayed a melting point of 125 to 128 °C. Further, in series [1] (read-out: % inhibition 10 nM), the inhibition at 0.01 µM fell in the range of 75 to 100%. Also, in series [1] (read-out: % inhibition 100 nM), the inhibition at 0.1 µM lay within 75 to 100%.
On to `CC1(O)C(=O)N(c2cncc(Cc3n[nH]c(=O)c4cc(F)ccc34)c2)c2cc(F)ccc21` (stereo not drawn) [Example 17, 7-Fluoro-4-((5-(6-fluoro-3-hydroxy-3-methyl-2-oxoindolin-1-yl)pyridin-3-yl)methyl)phthalazin-1(2H)-one], for which the melting point was in the range of 219 to 221 °C. Further, the inhibition at 0.01 µM in series [1] (read-out: % inhibition 10 nM) was 75 to 100%. For the same molecule, the inhibition at 0.1 µM in series [1] (read-out: % inhibition 100 nM) lay in the range of 75 to 100%.
As for `CC1(O)C(=O)N(c2cc(Cc3n[nH]c(=O)c4ccccc34)ccn2)c2ccccc21` (stereo not drawn) [Example 18, 4-((2-(3-hydroxy-3-methyl-2-oxoindolin-1-yl)pyridin-4-yl)methyl)phthalazin-1(2H)-one], the melting point was in the range of 203 to 205 °C. Further, the concentration for half-maximal inhibition (IC50) in series [2] was < 10 nM. Further, the pIC50 in series [1] is > 8.00. Also, in series [1] (read-out: % inhibition 10 nM), the inhibition at 0.01 µM fell in the range of 75 to 100%. Moreover, the inhibition at 0.1 µM in series [1] (read-out: % inhibition 100 nM) was 75 to 100%.
In turn, `CC1(O)C(=O)N(c2cccc(Cc3n[nH]c(=O)c4ccccc34)c2)c2ccccc21` (stereo not drawn) [Example 28, 4-(3-(3-Hydroxy-3-methyl-2-oxoindolin-1-yl)benzyl)phthalazin-1(2H)-one] gave a melting point of 240 to 243 °C. In addition, the inhibition at 0.01 µM in series [1] (read-out: % inhibition 10 nM) fell in the range of 75 to 100%. The inhibition at 0.1 µM in series [1] (read-out: % inhibition 100 nM) fell in the range of 75 to 100%.
`CC1(O)C(=O)N(c2cc(Cc3n[nH]c(=O)c4cc(F)ccc34)ccc2F)c2ccccc21` (stereo not drawn) [Example 29, 7-Fluoro-4-(4-fluoro-3-(3-hydroxy-3-methyl-2-oxoindolin-1-yl)benzyl)phthalazin-1(2H)-one]: the melting point was 207 to 210 °C. The inhibition at 0.01 µM in series [1] (read-out: % inhibition 10 nM) was in the range of 75 to 100%. The inhibition at 0.1 µM in series [1] (read-out: % inhibition 100 nM) was in the range of 75 to 100%.
In turn, `COC1(C)C(=O)N(c2cncc(Cc3n[nH]c(=O)c4ccccc34)c2)c2ccccc21` (stereo not drawn) [Example 30, 4-((5-(3-methoxy-3-methyl-2-oxoindolin-1-yl)pyridin-3-yl)methyl)phthalazin-1(2H)-one] had a melting point of 207 to 210 °C. The inhibition at 0.01 µM in series [1] (read-out: % inhibition 10 nM) is 25 to 50%. Moreover, the inhibition at 0.1 µM in series [1] (read-out: % inhibition 100 nM) fell in the range of 75 to 100%.
In the same order, the values of `CC1(O)C(=O)N(c2cccc(Cc3n[nH]c(=O)c4ccccc34)c2)c2cnccc21` (stereo not drawn) [Example 31, 4-(3-(3-Hydroxy-3-methyl-2-oxo-2,3-dihydro-1H-pyrrolo[2,3-c]pyridin-1-yl)benzyl)phthalazin-1(2H)-one] are 133 to 136 °C, 25 to 50% and 75 to 100%.
For `CC(=O)OC1(C)C(=O)N(c2cncc(Cc3n[nH]c(=O)c4ccccc34)c2)c2ccccc21` (stereo not drawn) [Example 32, 3-Methyl-2-oxo-1-(5-((4-oxo-3,4-dihydrophthalazin-1-yl)methyl)pyridin-3-yl)indolin-3-yl acetate], in that order: 237 to 239 °C, 75 to 100% and 75 to 100%.
On to `O=C1Cc2ccccc2N1c1cc(Cc2n[nH]c(=O)c3ccccc23)ccc1F` [Example 33, 4-(4-Fluoro-3-(2-oxoindolin-1-yl)benzyl)phthalazin-1(2H)-one], for which the melting point was 232 to 235 °C. In series [1] (read-out: % inhibition 10 nM), the inhibition at 0.01 µM fell in the range of 75 to 100%. In addition, in series [1] (read-out: % inhibition 100 nM), the inhibition at 0.1 µM lay in the range of 75 to 100%.
`CC1(C)C(=O)N(c2cc(Cc3n[nH]c(=O)c4ccccc34)ccc2F)c2ccccc21` [Example 34, 4-(3-(3,3-Dimethyl-2-oxoindolin-1-yl)-4-fluorobenzyl)phthalazine-1(2H)-one]: the melting point fell in the range of 129 to 132 °C. In addition, the inhibition at 0.01 µM in series [1] (read-out: % inhibition 10 nM) was in the range of 75 to 100%. The inhibition at 0.1 µM in series [1] (read-out: % inhibition 100 nM) lay within 75 to 100%.
Molecule `CC1(C)C(=O)N(c2cncc(Cc3n[nH]c(=O)c4ccccc34)c2)c2ccccc21` [Example 35, 4-((5-(3,3-Dimethyl-2-oxoindolin-1-yl)pyridin-3-yl)methyl)phthalazin-1(2H)-one] gave a melting point of 221 to 224 °C. In addition, the inhibition at 0.01 µM in series [1] (read-out: % inhibition 10 nM) was in the range of 75 to 100%. The inhibition at 0.1 µM in series [1] (read-out: % inhibition 100 nM) fell in the range of 75 to 100%.
For `CC1(C)C(=O)N(c2cncc(Cc3n[nH]c(=O)c4ccccc34)c2)c2cccnc21` [Example 36, 4-((5-(3,3-Dimethyl-2-oxo-2,3-dihydro-1H-pyrrolo[3,2-b]pyridin-1-yl)pyridin-3-yl)methyl)phthalazin-1(2H)-one], the melting point lay in the range of 242 to 245 °C. Further, the inhibition at 0.01 µM in series [1] (read-out: % inhibition 10 nM) was in the range of 25 to 50%. For the same molecule, the inhibition at 0.1 µM in series [1] (read-out: % inhibition 100 nM) lay within 75 to 100%.
For `CC1(C)C(=O)N(c2cc(Cc3n[nH]c(=O)c4ccccc34)ccc2F)c2cccnc21` [Example 37, 4-(3-(3,3-Dimethyl-2-oxo-2,3-dihydro-1H-pyrrolo[3,2-b]pyridin-1-yl)-4-fluorobenzyl)phthalazin-1(2H)-one], in that order: 114 to 117 °C, 25 to 50% and 75 to 100%.
In the same order, the values of `O=C1N(c2cncc(Cc3n[nH]c(=O)c4ccccc34)c2)c2ccccc2C12CC2` [Example 38, 1′-(5-((4-Oxo-3,4-dihydrophthalazin-1-yl)methyl)pyridin-3-yl)spiro[cyclopropane-1,3′-indolin]-2′-one] are 219 to 222 °C, 75 to 100% and 75 to 100%.

For the origin of these results see patent US20230234938A1 (RHIZEN PHARMACEUTICALS AG, priority 2020, published 2023).
